The text below walks through data of patent publication US6653478B2, “Substituted benzimidazol-2-ones as vasopressin receptor antagonists and neuropeptide Y modulators” (Ortho-McNeil Pharmaceutical, Inc., priority 2000, dated 2003).

Holding throughout (parameters): expressed in transfected cells; host or cells: HEK-293 (membranes)
Assay [1] deals with human V1a receptor (Homo sapiens, UniProt P37288). Put plainly: V1a binding assay (3H-AVP displacement, HEK-293 membranes). Particulars: for inhibition at 1 µM: 1.0 μM compound, read-out: V1a@1.0, % Inh. The protocol: (§1) V1a, V1b or V2 Binding Assay
Chain of human V1a receptor (P37288 whole entry): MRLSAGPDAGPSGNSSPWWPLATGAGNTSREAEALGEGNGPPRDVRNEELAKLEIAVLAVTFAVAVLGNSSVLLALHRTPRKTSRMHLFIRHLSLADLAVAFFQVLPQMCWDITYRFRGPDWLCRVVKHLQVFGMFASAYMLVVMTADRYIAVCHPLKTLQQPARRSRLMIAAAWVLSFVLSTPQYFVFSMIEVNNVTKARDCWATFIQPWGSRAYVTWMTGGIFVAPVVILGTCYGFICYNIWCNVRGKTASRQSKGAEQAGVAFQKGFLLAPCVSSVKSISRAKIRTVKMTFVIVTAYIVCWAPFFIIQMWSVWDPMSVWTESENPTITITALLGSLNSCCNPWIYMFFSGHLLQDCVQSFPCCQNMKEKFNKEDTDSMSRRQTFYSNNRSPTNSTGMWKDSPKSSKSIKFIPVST
(§2) Receptor binding studies were performed using recombinant human V1a, V1b or V2 receptors. Cellular membranes were harvested from HEK-293 cells transfected to express either the V1a, V1b or V2 receptors. Compounds were evaluated for their ability to displace ^3H-arginine vasopressin (^3H-AVP; specific activity 40-87 Ci/mmol; NEN Life Sciences, Boston, Mass.). Compounds were solubilized in dimethylsulfoxide (DMSO) and diluted to working concentration of 10% DMSO with assay buffer (50 mM Tris, 5 mM MgCl2, 0.1% BSA, pH 7.5). Assay buffer was supplemented with several protease inhibitors (1 mM Pefabloc, 5 μg/ml aprotinin/leupeptin/pepstatin A, 50 μg/ml bacitracin; Sigma Chemical, St. Louis, Mo.). Non-specific binding was determined using 1.25 μM arginine vasopressin (AVP; Peninsula Labs, Belmont, Calif.). Assay reagents and test compounds were added to 96-well round bottom polypropylene plates (145 μl buffer, 5 μl compound in 10% DMSO, 25 μl buffer containing 10,000 cpm tracer, 25 μl cell membrane). After incubation for 1 hour at room temperature, the well contents were aspirated across a Unifilter GF/C plate (Packard Instrument, Downers Grove, Ill.) which had been presoaked in 0.3% polyethyleneimine to prevent peptide sticking. The wells were washed repeatedly with cold saline containing 0.05% Tween 20. The plate was then dried and 25 μl Microscint-20 cocktail (Packard Instruments) added to each well. The plates were sealed and counted on a TopCount scintillation counter (Packard Instruments) using quench correction.

The target in assay [2] is T1, human V1b receptor (Homo sapiens, UniProt P47901).
T1 sequence (P47901 1-424): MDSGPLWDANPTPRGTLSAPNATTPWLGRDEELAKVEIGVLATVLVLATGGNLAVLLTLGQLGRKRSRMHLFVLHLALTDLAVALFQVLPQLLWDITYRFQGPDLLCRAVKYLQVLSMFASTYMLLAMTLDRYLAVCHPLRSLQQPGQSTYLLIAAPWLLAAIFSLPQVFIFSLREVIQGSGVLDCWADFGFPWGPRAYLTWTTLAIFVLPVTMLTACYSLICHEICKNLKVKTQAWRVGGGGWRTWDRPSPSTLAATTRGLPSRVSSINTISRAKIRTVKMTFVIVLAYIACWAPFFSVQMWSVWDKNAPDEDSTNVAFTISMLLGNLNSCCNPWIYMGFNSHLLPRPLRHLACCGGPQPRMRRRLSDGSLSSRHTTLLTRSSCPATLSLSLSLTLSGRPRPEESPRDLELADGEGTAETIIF
Put plainly: V1b binding assay (3H-AVP displacement, HEK-293 membranes). Particulars: for inhibition at 1 µM: 1.0 μM compound, read-out: V1b@1.0, % Inh. Here is the method: as §1, §2

Assay [3] deals with human V2 receptor (Homo sapiens, UniProt P30518). Briefly: V2 binding assay (3H-AVP displacement, HEK-293 membranes). Particulars: 1.0 μM compound; for inhibition at 1 µM: read-out: V2@1.0, % Inh. Here is the method:
as §1, §2

Chain of human V2 receptor (P30518 whole entry): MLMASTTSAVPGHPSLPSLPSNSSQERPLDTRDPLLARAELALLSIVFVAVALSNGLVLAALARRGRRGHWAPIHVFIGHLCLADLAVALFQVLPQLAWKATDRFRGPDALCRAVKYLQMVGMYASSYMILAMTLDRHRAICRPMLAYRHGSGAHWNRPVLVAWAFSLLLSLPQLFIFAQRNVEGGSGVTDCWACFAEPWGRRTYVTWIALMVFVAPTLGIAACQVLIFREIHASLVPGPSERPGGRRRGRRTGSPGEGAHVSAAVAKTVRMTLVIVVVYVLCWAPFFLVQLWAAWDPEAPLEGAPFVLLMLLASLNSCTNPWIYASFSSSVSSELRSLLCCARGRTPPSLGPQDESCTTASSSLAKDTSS

As to `CCCN(CCC)CCCn1c(=O)n(C2CCN(C(=O)NC(c3ccccc3)c3ccccc3)CC2)c2ccccc21` [Compound 80, 1-[(N1-piperidinocarbonylbiphenylmethylamino)-4-yl]-3-(3-N,N-dipropylaminopropyl)-1,3-dihydrobenzimidazol-2-one], the half-maximal inhibitory concentration (IC50) (commonly the point on the concentration scale where inhibition reaches its midpoint) in assay [1] amounted to 0.17 µM. The inhibition at 1 µM amounted to 38% in assay [2] and 11% in assay [3].

For `O=c1n(CCCNCC2CCCCC2)c2ccccc2n1C1CCN(C(=S)NC(c2ccccc2)c2ccccc2)CC1` [Compound 88, 1-[(N1-piperidinocarbothioylbiphenylmethylamino)-4-yl]-3-(3-cyclohexylmethylaminopropyl)-1,3-dihydrobenzimidazol-2-one], the IC50 in assay [1] turned out to be 0.036 µM; in assay [2], 1 µM. Further, the inhibition at 1 µM in assay [3] was determined as 3%.

The compound `O=c1n(CCCN2CCCCC2)c2cc(C(F)(F)F)ccc2n1C1CCN(C(=S)NC(c2ccccc2)c2ccccc2)CC1` [Compound 121] came in with an IC50 in assay [1] of 0.33 µM. Moreover, the figures for the inhibition at 1 µM in assay [2] and in assay [3] were 39% and 3%, respectively.

Turning to `CCCC1CCN(CCCn2c(=O)n(C3CCN(C(=S)NC(c4ccccc4)c4ccccc4)CC3)c3ccccc32)CC1` [Compound 122, 1-[(N1-piperidinocarbothioylbiphenylmethylamino)-4-yl]-3-(4-propylpiperidin-1-yl-propyl)-1,3-dihydrobenzimidazol-2-one], the IC50 worked out at 0.052 µM in assay [1] and 0.25 µM in assay [2]. Moreover, the inhibition at 1 µM turned out to be 70% in assay [2] and 0% in assay [3].

As to `COc1cccc(CNC(=S)N2CCC(n3c(=O)n(CCCN4CCCC4)c4ccccc43)CC2)c1OC` [Compound 123, 1-[(N1-Piperidinocarbothioyl-(2,3-dimethoxybenzyl)amino)-4-yl]-3-(3-pyrrolidinylpropyl)-1,3-dihydrobenzimidazol-2-one], the IC50 in assay [1] was 0.43 µM. Further, the results for the inhibition at 1 µM in assay [2] and in assay [3] were 31% and 2%, respectively.

In turn, `O=c1n(CCCN2CCCCC2)c2ccccc2n1C1CCN(C(=S)NCc2ccc(Cl)cc2)CC1` [Compound 124, 1-[(N1-piperidinocarbothioyl-4-chlorobenzylamino)-4-yl]-3-(3-N-piperidinylpropyl)-1,3-dihydrobenzimidazol-2-one] yielded an IC50 in assay [1] of 0.029 µM. Moreover, the figures for the inhibition at 1 µM in assay [2] and in assay [3] were 44% and 3%, respectively.

On to `O=c1n(CCCN2CCCCC2)c2ccccc2n1C1CCN(C(=S)NC2CCCCC2)CC1` [Compound 125, 1-[(N1-piperidinocarbothioylcyclohexylamino)-4-yl]-3-(3-N-piperidinylpropyl)-1,3-dihydrobenzimidazol-2-one], for which the 50% inhibitory concentration (IC50) in assay [1] worked out at 0.39 µM. Also, the inhibition at 1 µM came out at 35% in assay [2] and 0% in assay [3].

As for `O=c1n(CCCN2CCCCC2)c2ccccc2n1C1CCN(C(=S)NC(c2ccccc2)(c2ccccc2)c2ccccc2)CC1` [Compound 126, 1-[(N1-piperidinocarbothioyltriphenylmethylamino)-4-yl]-3-(3-N-piperidinylpropyl)-1,3-dihydrobenzimidazol-2-one], the inhibition at 1 µM in assay [1], in assay [2] and in assay [3] was 0% throughout.

`O=c1n(CCCN2CCCCC2)c2ccccc2n1C1CCN(C(=S)NCc2ccccc2-c2ccccc2)CC1` [Compound 127] had an IC50 in assay [1] of 0.022 µM. In addition, the inhibition at 1 µM in assay [2] stood at 45%. In assay [3] (1 µM), the “V2@1.0, % Inh” value is on record as 0%.

As to `CCCNC(=S)N1CCC(n2c(=O)n(CCCN3CCCCC3)c3ccccc32)CC1` [Compound 128, 1-[(N1-piperidinocarbothioylpropylamino)-4-yl]-3-(3-N-piperidinylpropyl)-1,3-dihydrobenzimidazol-2-one], the inhibition at 1 µM came out at 12% in assay [1], 31% in assay [2] and 0% in assay [3].

`O=c1n(CCCN2CCCCC2)c2ccccc2n1C1CCN(C(=S)N[C@]23C[C@H]4C[C@H](C[C@H](C4)C2)C3)CC1` [Compound 129, 1-[(N1-piperidinocarbothioyl-1-adamantylamino)-4-yl]-3-(3-N-piperidinylpropyl)-1,3-dihydrobenzimidazol-2-one] registered an IC50 in assay [1] of 0.073 µM. Further, the inhibition at 1 µM in assay [2] worked out at 53%; in assay [3], 3%.

With `CC(C)(C)NC(=S)N1CCC(n2c(=O)n(CCCN3CCCCC3)c3ccccc32)CC1` [Compound 130, 1-[(N1-piperidinocarbothioyl-butylamino)-4-yl]-3-(3-N-piperidinylpropyl)-1,3-dihydrobenzimidazol-2-one], the inhibition at 1 µM came to 19% in assay [1], 26% in assay [2] and 2% in assay [3].

`O=c1n(CCCN2CCCCC2)c2ccccc2n1C1CCN(C(=S)NC2c3ccccc3-c3ccccc32)CC1` [Compound 131, 1-[(N1-piperidinocarbothioylfluorenylamino)-4-yl]-3-(3-N-piperidinylpropyl)-1,3-dihydrobenzimidazol-2-one] showed an IC50 in assay [1] of 0.048 µM. Further, the values for the inhibition at 1 µM in assay [2] and in assay [3] were 62% and 0%, respectively.

As to `CC(C)c1ccccc1NC(=S)N1CCC(n2c(=O)n(CCCN3CCCCC3)c3ccccc32)CC1` [Compound 132, 1-[(N1-piperidinocarbothioyl-2-isopropylphenylamino)-4-yl]-3-(3-N-piperidinylpropyl)-1,3-dihydrobenzimidazol-2-one], the inhibition at 1 µM was 66% in assay [1], 55% in assay [2] and 0% in assay [3].

As for `O=c1n(CCCN2CCCCC2)c2ccccc2n1C1CCN(C(=S)NCCCc2ccccc2)CC1` [Compound 133, 1-[(N1-piperidinocarbothioylphenpropylamino)-4-yl]-3-(3-N-piperidinylpropyl)-1,3-dihydrobenzimidazol-2-one], in assay [1], the half-maximal inhibitory concentration (IC50) turned out to be 0.069 µM. Further, the inhibition at 1 µM in assay [2] is 42%; in assay [3], 4%.

In turn, `O=c1n(CCCC2CCCCC2)c2ccccc2n1C1CCN(C(=S)NC(c2ccccc2)c2ccccc2)CC1` [Compound 134, 1-[(N1-Piperidinocarbothioyldiphenylmethylamino)-4-yl]-3-(3-cyclohexylpropyl)-1,3-dihydro-benzimidazol-2-one] displayed an IC50 in assay [1] of 0.45 µM. Moreover, the inhibition at 1 µM turned out to be 37% in assay [2] and 0% in assay [3].

In turn, `COc1ccc(C(NC(=S)N2CCC(n3c(=O)n(CCCN4CCCCC4)c4ccccc43)CC2)c2ccc(OC)cc2)cc1` [Compound 136] yielded an IC50 in assay [1] of 0.079 µM. Moreover, the inhibition at 1 µM in assay [2] turned out to be 50%; in assay [3] it was 25%.

Take `O=C1CCCN1CCCn1c(=O)n(C2CCN(C(=S)NC(c3ccccc3)c3ccccc3)CC2)c2ccccc21` [Compound 175]: the inhibition at 1 µM is 61% in assay [1] and 23% in assay [2].

Consider `O=C1CCCCN1CCCn1c(=O)n(C2CCN(C(=S)NC(c3ccccc3)c3ccccc3)CC2)c2ccccc21` [Compound 176], for which the inhibition at 1 µM in assay [1] stood at 59%; in assay [2], 31%.

`CC(C)N(CCCn1c(=O)n(C2CCN(C(=S)NC(c3ccccc3)c3ccccc3)CC2)c2ccccc21)C1CCCCC1` [Compound 177]: the half-inhibitory concentration (IC50) in assay [1] came out at 0.147 µM. For the same compound, in assay [2], the inhibition at 1 µM came out at 31%.

With `CCCCN(CC)CCCn1c(=O)n(C2CCN(C(=S)NC(c3ccccc3)c3ccccc3)CC2)c2ccccc21` [Compound 178], the IC50 in assay [1] stood at 0.09 µM. Further, the inhibition at 1 µM in assay [2] was determined as 43%.

Turning to `CCN(CCCn1c(=O)n(C2CCN(C(=S)NC(c3ccccc3)c3ccccc3)CC2)c2ccccc21)C1CCCCC1` [Compound 179], the concentration for half-maximal inhibition (IC50) in assay [1] came out at 0.145 µM. The inhibition at 1 µM in assay [2] turned out to be 65%.

Regarding `CCC1CCN(CCCn2c(=O)n(C3CCN(C(=S)NC(c4ccccc4)c4ccccc4)CC3)c3ccccc32)C(C)C1` (stereo not drawn) [Compound 180], in assay [1], the concentration for half-maximal inhibition (IC50) came to 0.067 µM. Further, in assay [2], the inhibition at 1 µM worked out at 58%.

In the case of `CC1CCCCN1CCCn1c(=O)n(C2CCN(C(=S)NC(c3ccccc3)c3ccccc3)CC2)c2ccccc21` (stereo not drawn) [Compound 181], the half-maximal inhibitory concentration (IC50) turned out to be 0.023 µM in assay [1] and 0.15 µM in assay [2].
